Experiments:
[1] = target: human Nav1.5 (Homo sapiens (Human), UniProt Q14524); assay: Human Nav1.5 inhibitory activity evaluation (automated patch clamp QPatch16X, HEK293 cells stably expressing human Nav1.5); type: cell-based
Protocol: Test Example 2: Human Nav1.5 Inhibitory Activity Evaluation
A cell line in which human Nav1.5 was stably expressed in HEK293 cells was used. DMEM supplemeted with 15% fetal bovine serum, 500 μg/ml geneticin, 100 units/ml penicillin, 100 μg/ml streptomycin, 20 mM HEPES was used as culture medium under the conditions of 37° C. and 5% CO2 in T175 flasks to carry out culturing. When 60-80% confluence was reached, a cell suspension of about 0.5-5.0×10^6 cells/mL was prepared. The amount of current through human Nav1.5 was recorded using a fully automatic patch clamp device QPatch16X at room temperature. As the extracellular solution, 145 mM NaCl, 4 mM KCl, 1 mM MgCl2, 2 mM CaCl2, 10 mM Glucose, and 10 mM HEPES at pH 7.4 was used. As the intracellular solution, 135 mM CsF, ⅕ mM EGTA/CsOH, 10 mM HEPES, and 10 mM NaCl at pH 7.3 was used. The test compounds were dissolved in DMSO and diluted with the extracellular solution to attend the DMSO concentration of 0.1% at the time of assay.
The current response was obtained at a sampling frequency of 25 kHz, and noise was removed with a 3 kHz low-pass filter. The holding potential was −80 mV. Correction of the leakage current was carried out by applying a step pulse of −100 mV before the test pulse. In order to investigate human Nav1.5 inhibitory effect of the test compound, test pulses imitating the action potential of cardiomyocytes were continuously given 20 times. The test pulses were given before and after the test compound addition.
The inhibitory activity of the test compound was determined based on the amount of inward current generated by the 20th depolarization pulse, and the 50% inhibitory concentration (IC50) was calculated from the concentration-response curve.

[2] = target: human Nav1.7 (Homo sapiens (Human), UniProt Q15858); assay: Human Nav1.7 inhibitory activity evaluation (automated patch clamp QPatch16X, HEK293A cells stably expressing human Nav1.7 and human Navβ1); type: cell-based
Sequence of human Nav1.7 (Q15858 whole entry): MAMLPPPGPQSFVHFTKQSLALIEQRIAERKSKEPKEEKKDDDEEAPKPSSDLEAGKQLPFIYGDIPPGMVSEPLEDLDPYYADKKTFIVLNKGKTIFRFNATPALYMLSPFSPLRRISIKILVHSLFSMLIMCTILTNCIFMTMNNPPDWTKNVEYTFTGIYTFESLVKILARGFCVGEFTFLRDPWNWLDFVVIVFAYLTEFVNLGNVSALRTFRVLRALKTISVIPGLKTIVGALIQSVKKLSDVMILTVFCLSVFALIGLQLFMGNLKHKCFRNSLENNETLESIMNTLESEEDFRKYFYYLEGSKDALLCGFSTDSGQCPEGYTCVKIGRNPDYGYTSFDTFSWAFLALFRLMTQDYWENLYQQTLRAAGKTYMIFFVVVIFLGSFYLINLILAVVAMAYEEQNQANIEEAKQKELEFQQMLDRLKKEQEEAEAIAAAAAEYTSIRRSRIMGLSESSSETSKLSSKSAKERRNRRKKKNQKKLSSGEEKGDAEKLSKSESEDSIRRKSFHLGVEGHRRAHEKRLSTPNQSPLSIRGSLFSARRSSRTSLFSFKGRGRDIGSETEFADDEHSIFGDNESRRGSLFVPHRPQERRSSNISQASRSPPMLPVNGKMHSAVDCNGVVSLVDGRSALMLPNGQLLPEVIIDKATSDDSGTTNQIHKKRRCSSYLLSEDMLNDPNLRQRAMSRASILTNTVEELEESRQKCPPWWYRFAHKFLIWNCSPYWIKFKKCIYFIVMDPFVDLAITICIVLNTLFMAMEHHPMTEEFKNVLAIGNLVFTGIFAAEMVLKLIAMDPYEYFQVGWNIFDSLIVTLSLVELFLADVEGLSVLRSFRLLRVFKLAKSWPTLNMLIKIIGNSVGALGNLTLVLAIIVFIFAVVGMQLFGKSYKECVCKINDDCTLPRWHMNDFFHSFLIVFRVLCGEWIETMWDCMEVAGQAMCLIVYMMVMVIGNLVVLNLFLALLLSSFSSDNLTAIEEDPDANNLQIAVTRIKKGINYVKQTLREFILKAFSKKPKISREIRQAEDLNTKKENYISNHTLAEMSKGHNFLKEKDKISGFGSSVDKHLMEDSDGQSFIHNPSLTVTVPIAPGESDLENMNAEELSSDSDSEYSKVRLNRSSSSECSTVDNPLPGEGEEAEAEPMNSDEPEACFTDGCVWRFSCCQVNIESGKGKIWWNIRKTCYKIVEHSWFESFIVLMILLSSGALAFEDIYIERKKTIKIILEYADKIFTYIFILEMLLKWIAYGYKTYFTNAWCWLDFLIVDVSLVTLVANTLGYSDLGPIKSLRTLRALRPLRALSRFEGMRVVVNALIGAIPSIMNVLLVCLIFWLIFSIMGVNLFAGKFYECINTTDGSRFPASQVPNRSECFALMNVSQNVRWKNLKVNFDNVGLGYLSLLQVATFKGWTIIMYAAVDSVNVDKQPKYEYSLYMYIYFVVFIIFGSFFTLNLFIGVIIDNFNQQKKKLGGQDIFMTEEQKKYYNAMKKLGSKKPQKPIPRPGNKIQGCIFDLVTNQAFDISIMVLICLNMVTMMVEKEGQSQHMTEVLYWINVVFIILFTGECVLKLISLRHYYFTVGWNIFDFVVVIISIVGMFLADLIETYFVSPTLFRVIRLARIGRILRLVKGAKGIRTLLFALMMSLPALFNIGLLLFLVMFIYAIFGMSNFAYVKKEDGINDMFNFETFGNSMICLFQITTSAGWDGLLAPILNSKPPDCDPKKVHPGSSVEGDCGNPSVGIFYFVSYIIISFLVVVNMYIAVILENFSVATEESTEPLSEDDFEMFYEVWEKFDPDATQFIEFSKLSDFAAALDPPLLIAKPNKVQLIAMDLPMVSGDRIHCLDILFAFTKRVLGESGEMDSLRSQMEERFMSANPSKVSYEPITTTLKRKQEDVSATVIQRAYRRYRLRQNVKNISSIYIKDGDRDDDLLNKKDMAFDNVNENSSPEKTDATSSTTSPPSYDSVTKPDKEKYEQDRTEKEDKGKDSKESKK
Sequence of human Nav1.7 (Q07699 19-218 partner): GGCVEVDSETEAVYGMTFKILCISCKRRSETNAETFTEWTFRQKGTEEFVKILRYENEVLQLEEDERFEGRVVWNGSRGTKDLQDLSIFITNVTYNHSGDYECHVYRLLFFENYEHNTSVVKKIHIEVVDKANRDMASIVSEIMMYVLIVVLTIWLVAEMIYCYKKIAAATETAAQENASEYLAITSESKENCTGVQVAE
In short: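 IC50 calculated from the concentration-response of inward current evoked by the second −10 mV, 50 ms depolarisation, which follows a 15 s conditioning step at roughly 30-40% inactivation and a 100 ms −120 mV interval. Cells: HEK293A expressing human Nav1.7/Navβ1, automated patch clamp, room temperature, 0.1% DMSO final.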

[3] = human Nav1.5, automated patch clamp
[4] = human Nav1.7, automated patch clamp
[5] = HEK293 cells stably expressing human Nav1.5, automated patch clamp QPatch16X
[6] = HEK293A cells stably expressing human Nav1.7 and human Navβ1, automated patch clamp QPatch16X

Sequence of human Nav1.5 (Q14524 whole entry): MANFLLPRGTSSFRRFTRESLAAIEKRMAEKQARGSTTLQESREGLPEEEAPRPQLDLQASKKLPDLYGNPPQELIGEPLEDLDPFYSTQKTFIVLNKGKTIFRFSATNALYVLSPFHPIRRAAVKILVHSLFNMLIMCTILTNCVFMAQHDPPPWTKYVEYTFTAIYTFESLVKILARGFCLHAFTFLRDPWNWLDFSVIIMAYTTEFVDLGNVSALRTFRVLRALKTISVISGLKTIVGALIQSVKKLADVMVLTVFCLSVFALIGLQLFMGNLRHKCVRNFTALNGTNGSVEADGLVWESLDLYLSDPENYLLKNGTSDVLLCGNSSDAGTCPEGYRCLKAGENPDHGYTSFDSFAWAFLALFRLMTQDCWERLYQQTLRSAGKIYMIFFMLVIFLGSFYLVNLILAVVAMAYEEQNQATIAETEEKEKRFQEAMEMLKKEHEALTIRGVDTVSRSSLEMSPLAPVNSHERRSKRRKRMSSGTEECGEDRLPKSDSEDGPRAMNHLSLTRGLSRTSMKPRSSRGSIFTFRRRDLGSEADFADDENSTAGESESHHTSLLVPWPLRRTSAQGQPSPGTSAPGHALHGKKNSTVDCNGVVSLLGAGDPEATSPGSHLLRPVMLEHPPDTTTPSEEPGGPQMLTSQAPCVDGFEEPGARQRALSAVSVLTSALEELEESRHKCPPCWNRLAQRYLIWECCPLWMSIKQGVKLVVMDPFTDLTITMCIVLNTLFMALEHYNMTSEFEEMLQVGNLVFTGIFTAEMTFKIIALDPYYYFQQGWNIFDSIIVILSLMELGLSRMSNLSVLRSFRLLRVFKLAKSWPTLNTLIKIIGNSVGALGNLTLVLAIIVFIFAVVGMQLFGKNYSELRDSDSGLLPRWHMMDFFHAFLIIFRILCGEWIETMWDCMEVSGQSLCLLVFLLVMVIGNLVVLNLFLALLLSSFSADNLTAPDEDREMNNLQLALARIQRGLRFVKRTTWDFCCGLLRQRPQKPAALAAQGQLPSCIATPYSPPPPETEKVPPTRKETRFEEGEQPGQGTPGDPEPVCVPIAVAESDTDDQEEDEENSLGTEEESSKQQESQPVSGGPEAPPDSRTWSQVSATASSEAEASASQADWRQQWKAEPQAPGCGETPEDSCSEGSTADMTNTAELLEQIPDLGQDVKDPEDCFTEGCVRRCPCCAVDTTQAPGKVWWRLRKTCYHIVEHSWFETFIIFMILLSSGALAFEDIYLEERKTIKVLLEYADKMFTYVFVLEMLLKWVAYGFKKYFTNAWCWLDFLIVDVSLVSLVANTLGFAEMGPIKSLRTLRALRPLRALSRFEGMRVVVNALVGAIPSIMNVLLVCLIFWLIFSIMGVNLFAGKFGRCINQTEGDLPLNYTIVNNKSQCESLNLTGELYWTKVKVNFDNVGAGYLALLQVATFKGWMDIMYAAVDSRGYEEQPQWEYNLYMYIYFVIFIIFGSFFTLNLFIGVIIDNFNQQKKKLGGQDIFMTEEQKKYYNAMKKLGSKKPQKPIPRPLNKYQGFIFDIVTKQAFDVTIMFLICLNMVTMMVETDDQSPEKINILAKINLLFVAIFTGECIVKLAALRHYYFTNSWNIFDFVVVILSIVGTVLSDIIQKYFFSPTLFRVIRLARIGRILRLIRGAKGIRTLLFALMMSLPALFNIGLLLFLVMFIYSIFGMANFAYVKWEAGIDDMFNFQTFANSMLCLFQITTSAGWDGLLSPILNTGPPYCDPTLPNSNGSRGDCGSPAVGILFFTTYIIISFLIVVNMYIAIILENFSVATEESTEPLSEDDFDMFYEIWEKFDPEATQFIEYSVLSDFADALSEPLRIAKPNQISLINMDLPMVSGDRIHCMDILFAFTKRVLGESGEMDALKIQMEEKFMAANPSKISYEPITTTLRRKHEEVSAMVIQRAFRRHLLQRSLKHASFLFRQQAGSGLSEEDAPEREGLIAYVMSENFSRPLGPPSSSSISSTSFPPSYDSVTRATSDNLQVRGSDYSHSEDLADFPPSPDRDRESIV

Row | IC50 [2, 4] | IC50 [2, 6] | Structure (SMILES) | IC50 [1, 3] | IC50 [1, 5]
1 | < 1000 nM | – | COc1ncc(-c2ccc3c(c2)C[C@@H](NC(=O)c2cc4n(n2)CC(CCOCC2CC2)O4)CO3)cn1 (mixture of isomers) [Example 203, 2-(2-(cyclopropylmethoxy)ethyl)-N—((R)-6-(2-methoxypyrimidin-5-yl)chroman-3-yl)-2,3-dihydropyrazolo[5,1-b]oxazole-6-carboxamide] | ≥ 3000 nM | –
2 | < 10000 nM | – | N#Cc1ccc2c(c1)C[C@@H](NC(=O)c1cc3n(n1)CCC(COCC1(F)CC1)O3)CO2 (mixture of isomers) [Example 532] | ≥ 3000 nM | –
3 | – | < 1000 nM | O=C(N[C@H]1COc2ccc(C(F)F)cc2C1)c1cn2c(n1)CCC(C(F)(F)F)C2 (single isomer, unassigned) [7 (isomer A)] | – | 1000 to 3000 nM
4 | – | < 1000 nM | O=C(N[C@H]1COc2ccc(C(F)F)cc2C1)c1cn2c(n1)CCC(C(F)(F)F)C2 (single isomer, unassigned) [7 (isomer B)] | – | ≥ 3000 nM
5 | – | < 10000 nM | O=C(NC1COc2cccc(Br)c2C1)c1cn2c(n1)CCC(C(F)(F)F)C2 (single isomer, unassigned) [9 (isomer A)] | – | ≥ 3000 nM
6 | – | < 1000 nM | O=C(NC1COc2cccc(Br)c2C1)c1cn2c(n1)CCC(C(F)(F)F)C2 (single isomer, unassigned) [9 (isomer B)] | – | ≥ 3000 nM
7 | – | < 10000 nM | O=C(N[C@H]1COc2ccc(Cl)cc2C1)c1cn2c(n1)CCC(OCC(F)(F)F)C2 (single isomer, unassigned) [39 (isomer A)] | – | 1000 to 3000 nM
8 | – | < 10000 nM | O=C(N[C@H]1COc2ccc(Cl)cc2C1)c1cn2c(n1)CCC(OCC(F)(F)F)C2 (single isomer, unassigned) [39 (isomer B)] | – | ≥ 3000 nM
9 | – | < 1000 nM | CCCC1CCn2nc(C(=O)N[C@H]3COc4ccc(C#N)cc4C3)cc2O1 (single isomer, unassigned) [95 (isomer A)] | – | ≥ 3000 nM
10 | – | < 10000 nM | CCCOCC1CCn2nc(C(=O)N[C@H]3COc4ccc(C#N)cc4C3)cc2O1 (single isomer, unassigned) [101 (isomer B)] | – | ≥ 3000 nM
11 | – | < 10000 nM | N#Cc1ccc2c(c1)C[C@@H](NC(=O)c1cc3n(n1)CCC(COCC1CC1)O3)CO2 (single isomer, unassigned) [103 (isomer B)] | – | ≥ 3000 nM
12 | – | < 1000 nM | O=C(N[C@H]1COc2ccc(CC(F)F)cc2C1)c1cc2n(n1)CCC(COCC1CC1)O2 (single isomer, unassigned) [109 (isomer A)] | – | 1000 to 3000 nM
13 | – | < 10000 nM | O=C(N[C@H]1COc2ccc(CC(F)F)cc2C1)c1cc2n(n1)CCC(COCC1CC1)O2 (single isomer, unassigned) [109 (isomer B)] | – | ≥ 3000 nM
14 | – | < 1000 nM | O=C(N[C@H]1COc2ccc(-c3ccccn3)cc2C1)c1cc2n(n1)CCC(COCC1CC1)O2 (single isomer, unassigned) [111 (isomer A)] | – | 1000 to 3000 nM
15 | – | < 1000 nM | CC1(COCC2CCn3nc(C(=O)N[C@H]4COc5ccc(C#N)cc5C4)cc3O2)CC1 (single isomer, unassigned) [113 (isomer A)] | – | 1000 to 3000 nM
16 | – | < 1000 nM | CC1(COCC2CCn3nc(C(=O)N[C@H]4COc5ccc(C#N)cc5C4)cc3O2)CC1 (single isomer, unassigned) [113 (isomer B)] | – | < 1000 nM
17 | – | < 1000 nM | CCOCC1CCn2nc(C(=O)N[C@H]3COc4ccc(-c5ccccn5)cc4C3)cc2O1 (single isomer, unassigned) [124 (isomer A)] | – | ≥ 3000 nM
18 | – | < 10000 nM | CCOCC1CCn2nc(C(=O)N[C@H]3COc4ccc(-c5ccccn5)cc4C3)cc2O1 (single isomer, unassigned) [124 (isomer B)] | – | ≥ 3000 nM
19 | – | < 1000 nM | O=C(N[C@H]1COc2ccc(CC(F)F)cc2C1)c1cc2n(n1)CCC(COCC(F)(F)F)O2 (single isomer, unassigned) [127 (isomer A)] | – | ≥ 3000 nM
20 | – | < 1000 nM | O=C(N[C@H]1COc2ccc(COCC(F)(F)F)cc2C1)c1cc2n(n1)CCC(COCC(F)(F)F)O2 (single isomer, unassigned) [129 (isomer B)] | – | 1000 to 3000 nM
21 | – | < 1000 nM | O=C(N[C@H]1COc2ccc(-c3ccccn3)cc2C1)c1cc2n(n1)CCC(COCC(F)(F)F)O2 (single isomer, unassigned) [131 (isomer A)] | – | 1000 to 3000 nM

Row | IC50 [2, 4] | IC50 [2, 6] | Structure (SMILES) | IC50 [1, 3] | IC50 [1, 5]
22 | – | < 10000 nM | O=C(N[C@H]1COc2ccc(-c3ccccn3)cc2C1)c1cc2n(n1)CCC(COCC(F)(F)F)O2 (single isomer, unassigned) [131 (isomer B)] | – | ≥ 3000 nM
23 | – | < 10000 nM | N#Cc1ccc2c(c1)C[C@@H](NC(=O)c1cc3n(n1)CCC(COC(F)(F)F)O3)CO2 (single isomer, unassigned) [134 (isomer B)] | – | ≥ 3000 nM
24 | – | < 1000 nM | O=C(N[C@H]1COc2ccc(CC(F)F)cc2C1)c1cc2n(n1)CCC(COC(F)(F)F)O2 (single isomer, unassigned) [136 (isomer A)] | – | < 1000 nM
25 | – | < 1000 nM | O=C(N[C@H]1COc2ccc(CC(F)F)cc2C1)c1cc2n(n1)CCC(COC(F)(F)F)O2 (single isomer, unassigned) [136 (isomer B)] | – | 1000 to 3000 nM
26 | < 1000 nM | – | O=C(N[C@H]1COc2ccc(COCC(F)(F)F)cc2C1)c1cc2n(n1)CCC(COC(F)F)O2 (single isomer, unassigned) [140 (isomer A)] | ≥ 3000 nM | –
27 | < 1000 nM | – | O=C(N[C@H]1COc2ccc(COCC(F)(F)F)cc2C1)c1cc2n(n1)CCC(COC(F)F)O2 (single isomer, unassigned) [140 (isomer B)] | 1000 to 3000 nM | –
28 | < 1000 nM | – | O=C(N[C@H]1COc2ccc(CCOC(F)F)cc2C1)c1cc2n(n1)CCC(COC(F)F)O2 (single isomer, unassigned) [142 (isomer A)] | 1000 to 3000 nM | –
29 | < 1000 nM | – | O=C(N[C@H]1COc2ccc(CCOC(F)F)cc2C1)c1cc2n(n1)CCC(COC(F)F)O2 (single isomer, unassigned) [142 (isomer B)] | ≥ 3000 nM | –
30 | < 1000 nM | – | N#Cc1ccc2c(c1)C[C@@H](NC(=O)c1cc3n(n1)CCC(CCOC(F)F)O3)CO2 (single isomer, unassigned) [146 (isomer B)] | ≥ 3000 nM | –
31 | < 1000 nM | – | O=C(N[C@H]1COc2ccc(Cl)cc2C1)c1cc2n(n1)CCC(CNCC(F)(F)F)O2 (single isomer, unassigned) [152 (isomer A)] | ≥ 3000 nM | –
32 | < 1000 nM | – | O=C(N[C@H]1COc2ccc(Cl)cc2C1)c1cc2n(n1)CCC(CN1CCC(F)(F)C1)O2 (single isomer, unassigned) [153 (isomer A)] | 1000 to 3000 nM | –
33 | < 1000 nM | – | N#Cc1ccc2c(c1)C[C@@H](NC(=O)c1cc3n(n1)CCC(CSC(F)(F)F)O3)CO2 (single isomer, unassigned) [156 (isomer A)] | ≥ 3000 nM | –
34 | < 1000 nM | – | O=C(N[C@H]1COc2ccc(Cl)cc2C1)c1cc2n(n1)CCC(C(F)F)O2 (single isomer, unassigned) [158 (isomer A)] | ≥ 3000 nM | –
35 | < 1000 nM | – | O=C(N[C@H]1COc2ccc(COCC(F)(F)F)cc2C1)c1cc2n(n1)CCC(C(F)F)O2 (single isomer, unassigned) [163 (isomer A)] | 1000 to 3000 nM | –
36 | < 1000 nM | – | O=C(N[C@H]1COc2ccc(Cl)cc2C1)c1cc2n(n1)CCC(C(F)(F)F)O2 (single isomer, unassigned) [170 (isomer A)] | 1000 to 3000 nM | –
37 | < 1000 nM | – | O=C(N[C@H]1COc2ccc(Cl)cc2C1)c1cc2n(n1)CCC(C(F)(F)F)O2 (single isomer, unassigned) [170 (isomer B)] | < 1000 nM | –
38 | < 1000 nM | – | O=C(N[C@H]1COc2ccc(CC(F)F)cc2C1)c1cc2n(n1)CCC(C(F)(F)F)O2 (single isomer, unassigned) [173 (isomer A)] | ≥ 3000 nM | –
39 | < 1000 nM | – | O=C(N[C@H]1COc2ccc(COCC(F)(F)F)cc2C1)c1cc2n(n1)CC(C(F)(F)F)O2 (single isomer, unassigned) [184 (isomer A)] | 1000 to 3000 nM | –
40 | < 10000 nM | – | O=C(N[C@H]1COc2ccc(COCC(F)(F)F)cc2C1)c1cc2n(n1)CC(COCC1CC1)O2 (single isomer, unassigned) [186 (isomer A)] | ≥ 3000 nM | –
41 | < 1000 nM | – | O=C(N[C@H]1COc2ccc(COCC(F)(F)F)cc2C1)c1cc2n(n1)CC(COCC1CC1)O2 (single isomer, unassigned) [186 (isomer B)] | 1000 to 3000 nM | –
